Patent US12527773B2, “Flavi-block: a pan-flavivirus inhibitor” (Baden-Württemberg Stiftung GmbH, priority 2020, dated 2026)
Counter-ions that a name gives are not always drawn.

Assays:
[1] = Metabolic stability in mouse liver microsomes; settings: male, Balb/c, mouse, microsomes, pH 7.4
Description: Microsomal incubations were carried out in 96-well plates in 5 aliquots of […] each (one for each time point). […] Control incubations were performed replacing the NADPH-cofactor system with PBS. […] Incubations were performed in duplicates. Five time points over 40 minutes had been analyzed. The reactions were stopped by adding 12 volumes of 90% acetonitrile-water to incubation aliquots, followed by protein sedimentation by centrifuging at 5500 rpm for 3 minutes. […]. Supernatants were analyzed using the HPLC system coupled with tandem mass spectrometer.
The elimination constant (kel), half-life (t½) and intrinsic clearance (Clint) were determined in plot of In(AUC) versus time, using linear regression analysis (In order to indicate the quality of the linear regression analysis, the R (correlation coefficient) values are provided. In some cases, the last time point is excluded from the calculations to ensure acceptable logarithmic linearity of decay): […]

[2] = test system: hematopoietic stem cell formation; assay: Effect on zebrafish hematopoietic stem cell formation (in situ runx-1+c-myb); format: in vivo; settings: 36 hpf
Description: Zebrafish embryos were exposed 20-30 min after fertilization to differing concentrations of the compounds C10 and D1 (5 μM; 15 μM; 25 μM) or to medium containing the corresponding solvent (DMSO) concentration. Therefore, 3-5 embryos were sorted into each of three wells of a 96 well plate containing 200 μl of medium. For phenotype analysis, triplicates were imaged after 6-7 h post fertilization (hpf) at approximately shield stage, after 24 hpf and after 48 hpf. Dead +unfertilized embryos were removed. For imaging at 24 hpf +48 hpf; embryos were anesthetized using MESAB. (A) Diagramm showing the percentage of embryos at each time point either developing normal (blue color) or with the indicated phenotype. (B) representative images of embryos treated with the indicated compounds, or controls at the respective time points. (C) To additionally elucidate the influence on hematopoietic stem cell formation, approx. half of the embryos were sampled at 36 hpf and an in situ staining for runx-1+c-myb was performed. Shown are representative images of hematopoietic stem cell formation with the treatment indicated.
Embryos were exposed 20-30 min after fertilization to differing concentrations of the compounds C10 and D1 (5 μM; 15 μM; 25 μM) or to medium containing the corresponding solvent (DMSO) concentration. […]

DENV capsid protein = target: T1, DENV capsid protein (Dengue virus type 2, UniProt P29990); assay: Crosslinking of recombinant DENV capsid protein (Western blot); format: biochemical
T1 construct: recombinant DENV capsid protein; made in house; host or cells: E. coli
From the text: (§1) DSS was included as a positive control.

[3] = test system: VP1 polyomavirus, LP1 HPV16, p24 HIV, BSA, GFP; assay: Specificity in the cross-linking assay: other capsid and non-related proteins; format: biochemical
Description: as §1
To study the specificity of C10, capsid proteins of other viruses (VP1 polyomavirus, LP1 HPV16, and p24 HIV) as well as non-related proteins (BSA, GFP), were incubated in the so-called cross-linking assay, with DSS or C10.

in vitro = settings: for % Remain. Mean: mouse plasma, 1 μM, 37° C.
Description: Plasma stability is defined as the percentage of parent compound remaining in plasma over the time.
Incubations were carried out in 5 aliquots of 70 μL each (one for each time point), in duplicates. Test compounds (1 μM, final DMSO concentration 1%) were incubated at 37° C. with shaking at 100 rpm. Five time points over 120 minutes have been analyzed. The reactions were stopped by adding 420 μL of acetonitrile-water mixture (90:10) with subsequent plasma proteins sedimentation by centrifuging at 5500 rpm for 5 minutes. Supernatants were analyzed by the HPLC system coupled with tandem mass spectrometer. The percentage of the test compounds remaining after incubation in plasma and their half-lives (T1/2) were calculated.

HCV = assay: IC50 against HCV, RLuc reporter virus, re-infection of naïve Huh7.5 cells; format: cell-based, Hepatitis C virus; settings: serial dilutions 20 to 0.0024 μM
Description: Concerning the SAR studies, 45 C10 derivatives were designed and synthesized, which were tested regarding both their antiviral activity against HCV and DENV, as well as their cytotoxicity. For the activity test, a construct including the viral genome and the reporter gene RLuc was used.
Huh7.5 cells were electroporated with the corresponding RNA, seeded in 96-well plate and treated during 24/48 h with C10 and the different compounds. The supernatant of virus-producing cells was used to re-infect naïve Huh7.5 cells, which were then lysed and their RLuc signal measured.

Huh7.5 cells = assay: SAR test of C10 derivatives: cytotoxicity (CellTiterGlo); settings: 48 h

CC(C)NCC(O)COc1cccc2ccccc12 (racemic) [Propranolol, (+,−) Propranolol hydrochloride, reference compound]
half-life at 2 mM [1]: 53.9 min

CCN1/C(=C/C=C/c2sc3cc(N)ccc3[n+]2CC)Sc2cc(N)ccc21.[I-] [D1, 6-amino-2-[(1E)-3-[(2Z)-6-amino-3-ethyl-2,3-dihydro-1,3-benzothiazol-2-ylidene]prop-1-en-1-yl]-3-ethyl-1,3-benzothiazol-3-ium iodide]
hematopoietic stem cell formation [2]: no difference to the WT embryos

O=C(CCCCCCC(=O)ON1C(=O)CCC1=O)ON1C(=O)CCC1=O [DSS, disuccinimidyl suberate, reference compound]
effect on oligomerization state of DENV capsid protein (DENV capsid protein): stabilizes mainly the dimer | crosslinking effect on other capsid and non-related proteins [3]: clear effect of monomer consumption and dimer formation

CC(C)[N+](C)(CCOC(=O)C1c2ccccc2Oc2ccccc21)C(C)C [Propantheline, Propantheline bromide, reference compound]
% Remain. Mean (in vitro; 0 min): 100% | % Remain. Mean (in vitro; 20 min): 66% | % Remain. Mean (in vitro; 40 min): 29% | % Remain. Mean (in vitro; 60 min): 13% | % Remain. Mean (in vitro; 120 min): 2% | half-life at 1 μM (in vitro; mouse, plasma): 20 min

CC(=O)Nc1ccc2c(c1)S/C(=C\C=C\c1sc3cc(NC(C)=O)ccc3[n+]1C)N2C [compound 45, 6-acetamido-2-((1E,3E)-3-(6-acetamido-3-methylbenzo[d]thiazol-2(3H)-ylidene)prop-1-en-1-yl)-3-methylbenzo[d]thiazol-3-ium iodide]
potency relative to C10 (IC50 against HCV) (HCV): 2.5 times | cytotoxicity (Huh7.5 cells): not cytotoxic at the concentrations in which they are antiviral

CCN1/C(=C/C(C)=C/c2sc3cc(NC(C)=O)ccc3[n+]2CC)Sc2cc(NC(C)=O)ccc21 [compound 46, 6-acetamido-2-((1E,3E)-3-(6-acetamido-3-ethylbenzo[d]thiazol-2(3H)-ylidene)-2-methylprop-1-en-1-yl)-3-ethylbenzo[d]thiazol-3-ium iodide]
potency relative to C10 (IC50 against HCV) (HCV): 1.5 times | cytotoxicity (Huh7.5 cells): not cytotoxic at the concentrations in which they are antiviral
